{"source": "paper PMC3559838", "about": "(PLoS ONE, 2013)", "key": {"UGT1A1": {"molecular_target": "T1, UGT1A1 (Homo sapiens, UniProt P22309)", "T1 sequence (P22309 26-533)": "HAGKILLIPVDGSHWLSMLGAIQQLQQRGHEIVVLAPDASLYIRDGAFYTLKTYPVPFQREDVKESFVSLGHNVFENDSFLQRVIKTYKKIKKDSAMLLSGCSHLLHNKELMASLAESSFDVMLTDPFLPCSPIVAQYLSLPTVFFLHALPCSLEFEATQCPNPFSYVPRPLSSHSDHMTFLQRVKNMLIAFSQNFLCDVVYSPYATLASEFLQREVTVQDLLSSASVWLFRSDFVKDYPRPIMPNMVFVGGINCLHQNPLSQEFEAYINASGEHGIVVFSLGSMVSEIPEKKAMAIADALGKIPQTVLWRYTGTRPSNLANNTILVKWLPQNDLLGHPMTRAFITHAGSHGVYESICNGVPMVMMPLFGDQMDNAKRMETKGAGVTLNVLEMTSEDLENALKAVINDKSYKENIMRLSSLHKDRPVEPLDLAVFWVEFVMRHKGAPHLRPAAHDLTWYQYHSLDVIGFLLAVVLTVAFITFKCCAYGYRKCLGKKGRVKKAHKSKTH", "test": "UGT supersome screening and kinetic analysis", "assay_type": "in vitro ADME", "conditions": "37°C", "method": "Plots of substrate concentration, S (X axis) versus v (Y axis) were then constructed. Km and Vmax were calculated using the Michaelis-Menten equation (GraphPad software, Inc., San Diego, CA, USA)."}, "[1]": {"conditions": "cited from earlier work"}, "[2]": {"set-up": "method as in Investigator's Brochure, 2004", "conditions": "dogs, ref Investigator's Brochure, 2004, cited from earlier work"}, "[3]": {"set-up": "method as in Plumb et al., 2003", "conditions": "dogs, 45 minute IV infusion of 50 mg/kg; ref Plumb et al., 2003; cited from earlier work"}, "CYP2C9": {"tested_on": "CYP2C9", "set-up": "method as in protocol pharmaceutical information", "conditions": "ref protocol pharmaceutical information; cited from earlier work"}, "[4]": {"tested_on": "murine P388 leukemia cells", "set-up": "method as in Investigator's Brochure, 2004", "conditions": "P388 IP model, ref Investigator's Brochure, 2004, cited from earlier work"}, "[5]": {"tested_on": "Histone H3 acetylation (Ac-H3 [K9/K14]) in HepG2 cells", "test": "Western blot of acetyl histone H3", "assay_type": "cell-based, human", "conditions": "dose increment after 5 h, time course at 10 µM", "experimental": "Protein concentrations were quantified using the Bradford assay (Invitrogen). Proteins were separated on a 12% SDS-PAGE gel and transferred to nitrocellulose membrane. Nonspecific protein binding was blocked by incubating with 5% non-fat milk (BioRad Laboratories) in 0.1% PBS-Tween (PBST) at room temperature for 1 h and incubated with specific antibodies, Histone H3 and Ac-H3 [K9/K14] (Cell Signaling), at 4°C overnight. Appropriate species-specific Horseradish peroxidises-conjugated secondary antibodies were then added and incubated at room temperature for 1 h followed by detection using an enhanced chemiluminescence kit (GE Healthcare)."}, "UGT2B15": {"molecular_target": "T2, UGT2B15 (Homo sapiens, UniProt P54855)", "T2 construct": "purchased BD Gentest", "T2 sequence (P54855 24-530)": "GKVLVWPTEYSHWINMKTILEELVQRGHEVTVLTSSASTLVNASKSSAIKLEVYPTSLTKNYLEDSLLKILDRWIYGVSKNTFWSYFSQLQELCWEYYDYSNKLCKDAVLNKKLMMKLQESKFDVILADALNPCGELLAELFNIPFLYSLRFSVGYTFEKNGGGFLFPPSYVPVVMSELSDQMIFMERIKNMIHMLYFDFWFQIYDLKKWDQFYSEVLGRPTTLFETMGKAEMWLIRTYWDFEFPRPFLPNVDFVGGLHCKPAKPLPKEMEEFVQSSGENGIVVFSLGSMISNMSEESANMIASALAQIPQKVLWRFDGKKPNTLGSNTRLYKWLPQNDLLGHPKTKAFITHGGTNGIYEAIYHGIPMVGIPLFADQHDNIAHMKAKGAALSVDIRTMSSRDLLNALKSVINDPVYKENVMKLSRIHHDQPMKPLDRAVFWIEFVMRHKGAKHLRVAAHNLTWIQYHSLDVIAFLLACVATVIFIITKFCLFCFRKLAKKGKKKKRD", "test": "UGT supersome screening", "assay_type": "in vitro ADME", "conditions": "UGT2B15 supersomes, 10 µM belinostat, 37°C", "experimental": "(§1) Before the addition of substrate, the incubation mixture was prewarmed and equilibrated for 5 min at 37°C. […] The incubation mixture was vortexed and centrifuged (10,060 g) at 4°C for 10 min, and the supernatants were analyzed. Insect microsomes without UGT cDNA served as negative control. […] Incubations were performed as described above. Three independent experiments were performed for kinetic analysis."}, "UGT2B17": {"molecular_target": "T3, UGT2B17 (Homo sapiens, UniProt O75795)", "T3 construct": "purchased BD Gentest", "T3 sequence (O75795 24-530)": "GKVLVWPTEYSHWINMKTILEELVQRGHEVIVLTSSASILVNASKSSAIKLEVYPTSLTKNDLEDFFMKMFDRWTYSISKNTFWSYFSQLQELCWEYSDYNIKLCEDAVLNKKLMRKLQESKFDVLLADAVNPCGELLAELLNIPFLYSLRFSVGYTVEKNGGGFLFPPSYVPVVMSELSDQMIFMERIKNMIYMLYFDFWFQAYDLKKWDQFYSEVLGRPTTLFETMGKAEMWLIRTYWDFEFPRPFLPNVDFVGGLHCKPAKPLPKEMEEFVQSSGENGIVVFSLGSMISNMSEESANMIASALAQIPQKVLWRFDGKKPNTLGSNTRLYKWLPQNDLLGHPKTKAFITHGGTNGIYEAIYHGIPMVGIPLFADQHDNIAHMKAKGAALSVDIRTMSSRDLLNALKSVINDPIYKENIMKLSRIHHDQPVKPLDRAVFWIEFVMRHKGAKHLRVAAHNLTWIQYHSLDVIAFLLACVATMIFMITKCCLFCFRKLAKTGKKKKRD", "test": "UGT supersome screening", "assay_type": "in vitro ADME", "conditions": "UGT2B17 supersomes, 10 µM belinostat, 37°C", "experimental": "as §1"}, "UGT1A6": {"molecular_target": "T4, UGT1A6 (Homo sapiens, UniProt P19224)", "T4 construct": "purchased BD Gentest", "T4 sequence (P19224 27-532)": "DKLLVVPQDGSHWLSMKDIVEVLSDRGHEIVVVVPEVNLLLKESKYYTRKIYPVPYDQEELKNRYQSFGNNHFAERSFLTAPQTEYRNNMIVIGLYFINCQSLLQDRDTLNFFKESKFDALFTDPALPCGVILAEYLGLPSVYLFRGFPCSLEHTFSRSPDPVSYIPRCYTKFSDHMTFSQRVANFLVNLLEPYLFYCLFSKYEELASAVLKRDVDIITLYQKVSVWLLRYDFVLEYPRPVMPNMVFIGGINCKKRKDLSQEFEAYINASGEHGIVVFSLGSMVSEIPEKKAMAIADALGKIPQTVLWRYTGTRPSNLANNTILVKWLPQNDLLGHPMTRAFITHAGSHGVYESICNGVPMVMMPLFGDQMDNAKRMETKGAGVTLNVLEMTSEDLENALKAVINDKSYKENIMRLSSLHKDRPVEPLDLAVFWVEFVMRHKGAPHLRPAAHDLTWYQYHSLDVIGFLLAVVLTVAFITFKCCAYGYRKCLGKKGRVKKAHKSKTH", "test": "UGT supersome screening", "assay_type": "in vitro ADME", "conditions": "UGT1A6 supersomes, 10 µM belinostat, 37°C", "experimental": "as §1"}, "UGT1A10": {"molecular_target": "T5, UGT1A10 (Homo sapiens, UniProt Q9HAW8)", "T5 construct": "purchased BD Gentest", "T5 sequence (Q9HAW8 26-530)": "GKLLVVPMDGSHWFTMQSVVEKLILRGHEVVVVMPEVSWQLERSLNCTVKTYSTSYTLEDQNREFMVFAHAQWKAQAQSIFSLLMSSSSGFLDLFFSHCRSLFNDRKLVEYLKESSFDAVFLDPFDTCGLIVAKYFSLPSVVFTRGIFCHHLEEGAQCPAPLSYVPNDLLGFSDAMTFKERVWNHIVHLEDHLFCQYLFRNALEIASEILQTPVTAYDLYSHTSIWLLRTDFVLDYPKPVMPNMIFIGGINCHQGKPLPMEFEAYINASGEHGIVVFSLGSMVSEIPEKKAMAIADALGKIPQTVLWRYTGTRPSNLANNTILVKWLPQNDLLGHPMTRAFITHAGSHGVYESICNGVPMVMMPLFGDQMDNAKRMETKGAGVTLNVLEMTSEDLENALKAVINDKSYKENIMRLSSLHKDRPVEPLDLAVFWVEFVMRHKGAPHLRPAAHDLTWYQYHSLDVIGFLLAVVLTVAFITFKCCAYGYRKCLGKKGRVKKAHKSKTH", "test": "UGT supersome screening", "assay_type": "in vitro ADME", "conditions": "UGT1A10 supersomes, 10 µM belinostat, 37°C", "experimental": "as §1"}, "UGT1A7": {"molecular_target": "T6, UGT1A7 (Homo sapiens, UniProt Q9HAW7)", "T6 construct": "purchased BD Gentest", "T6 sequence (Q9HAW7 26-530)": "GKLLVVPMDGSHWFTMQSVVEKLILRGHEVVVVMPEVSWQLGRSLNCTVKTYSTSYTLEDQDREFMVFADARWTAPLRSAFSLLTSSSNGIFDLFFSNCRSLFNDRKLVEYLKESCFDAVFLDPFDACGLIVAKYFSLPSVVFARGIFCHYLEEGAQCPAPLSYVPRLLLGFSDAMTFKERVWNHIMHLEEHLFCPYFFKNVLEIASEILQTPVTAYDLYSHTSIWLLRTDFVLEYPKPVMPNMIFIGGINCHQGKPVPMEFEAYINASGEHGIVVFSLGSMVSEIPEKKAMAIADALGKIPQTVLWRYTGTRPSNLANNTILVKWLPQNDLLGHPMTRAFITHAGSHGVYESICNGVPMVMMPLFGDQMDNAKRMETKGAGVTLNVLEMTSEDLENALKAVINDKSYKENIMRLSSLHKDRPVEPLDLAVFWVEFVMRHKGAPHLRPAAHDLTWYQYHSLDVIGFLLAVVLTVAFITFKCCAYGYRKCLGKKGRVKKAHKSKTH", "test": "UGT supersome screening", "assay_type": "in vitro ADME", "conditions": "UGT1A7 supersomes, 10 µM belinostat, 37°C", "experimental": "as §1"}, "UGT1A4": {"molecular_target": "T7, UGT1A4 (Homo sapiens, UniProt P22310)", "T7 construct": "purchased BD Gentest", "T7 sequence (P22310 29-534)": "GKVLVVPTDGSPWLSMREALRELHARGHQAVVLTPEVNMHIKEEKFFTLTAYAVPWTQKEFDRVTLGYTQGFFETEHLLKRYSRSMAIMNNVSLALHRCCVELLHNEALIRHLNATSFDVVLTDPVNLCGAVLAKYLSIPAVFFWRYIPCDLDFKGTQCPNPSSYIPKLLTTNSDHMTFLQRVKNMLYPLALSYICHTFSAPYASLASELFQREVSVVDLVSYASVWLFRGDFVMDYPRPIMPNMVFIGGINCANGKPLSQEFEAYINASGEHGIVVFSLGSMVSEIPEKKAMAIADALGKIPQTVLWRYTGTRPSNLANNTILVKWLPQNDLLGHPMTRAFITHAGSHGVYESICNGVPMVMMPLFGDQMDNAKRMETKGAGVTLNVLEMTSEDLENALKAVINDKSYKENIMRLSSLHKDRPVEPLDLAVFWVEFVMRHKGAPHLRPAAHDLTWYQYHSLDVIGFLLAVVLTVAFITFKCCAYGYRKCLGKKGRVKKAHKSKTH", "test": "UGT supersome screening", "assay_type": "in vitro ADME", "conditions": "UGT1A4 supersomes, 10 µM belinostat, 37°C", "experimental": "as §1"}, "UGT1A9": {"molecular_target": "T8, UGT1A9 (Homo sapiens, UniProt O60656)", "T8 construct": "purchased BD Gentest", "T8 sequence (O60656 26-530)": "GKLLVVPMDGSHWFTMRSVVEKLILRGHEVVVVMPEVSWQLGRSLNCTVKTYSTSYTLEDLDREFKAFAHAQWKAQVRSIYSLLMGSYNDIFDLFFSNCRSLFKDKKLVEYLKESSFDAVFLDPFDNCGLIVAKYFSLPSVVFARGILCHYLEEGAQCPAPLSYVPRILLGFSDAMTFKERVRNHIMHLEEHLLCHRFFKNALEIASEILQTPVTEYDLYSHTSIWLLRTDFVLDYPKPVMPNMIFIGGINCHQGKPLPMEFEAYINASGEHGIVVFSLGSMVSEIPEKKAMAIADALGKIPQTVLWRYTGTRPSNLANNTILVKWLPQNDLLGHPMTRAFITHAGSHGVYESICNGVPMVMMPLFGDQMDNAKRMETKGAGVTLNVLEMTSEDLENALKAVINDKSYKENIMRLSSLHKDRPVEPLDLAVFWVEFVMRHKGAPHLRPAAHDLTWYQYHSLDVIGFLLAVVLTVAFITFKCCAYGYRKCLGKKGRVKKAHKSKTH", "test": "UGT supersome screening", "assay_type": "in vitro ADME", "conditions": "UGT1A9 supersomes, 10 µM belinostat, 37°C", "experimental": "as §1"}, "[6]": {"tested_on": "five major cytochrome P450 enzymes", "conditions": "cited from earlier work"}, "[7]": {"tested_on": "cisplatin-resistant A2780/cp70", "set-up": "method as in Plumb et al., 2003; Investigator's Brochure, 2004", "conditions": "A2780/cp70 xenografts, 10 mg/kg/day IP once daily for 7 days; ref Plumb et al., 2003; Investigator's Brochure, 2004; cited from earlier work"}, "[8]": {"set-up": "method as in Investigator's Brochure, 2004", "conditions": "rats, 100 mg/kg/day, both formulations; ref Investigator's Brochure, 2004; cited from earlier work"}, "CYP3A4": {"tested_on": "CYP3A4", "set-up": "method as in protocol pharmaceutical information", "conditions": "ref protocol pharmaceutical information; cited from earlier work"}, "[9]": {"conditions": "150 mg/m2, 30-minute IV infusion, ref phase 1 study currently underway"}, "[10]": {"conditions": "300 mg/m2, 30-minute IV infusion, ref phase 1 study currently underway"}, "[11]": {"conditions": "600 mg/m2, 30-minute IV infusion, ref phase 1 study currently underway"}, "[12]": {"conditions": "900 mg/m2, 30-minute IV infusion, ref phase 1 study currently underway"}, "[13]": {"conditions": "1200 mg/m2, 30-minute IV infusion, ref phase 1 study currently underway"}}, "note": "Read-outs that look alike come from different tables or passages of the source.", "data": [{"compound": "O=C(/C=C/c1cccc(S(=O)(=O)Nc2ccccc2)c1)NO", "note": "[Belinostat, N-hydroxy-3-(phenylsulphamoylphenyl) acrylamide]", "values": [{"measurement": "belinostat converted to belinostat-G", "setting": "UGT1A1; 2 h incubation with UGT1A1 supersomes", "value": 73.6, "unit": "%"}, {"measurement": "belinostat converted to belinostat-G", "setting": "UGT1A1; 4 h incubation with UGT1A1 supersomes", "value": 89.4, "unit": "%"}, {"measurement": "glucuronidation of belinostat by UGT isoform", "setting": "UGT1A1; UGT1A1 supersomes, 10 µM belinostat", "value": "glucuronidated belinostat significantly"}, {"measurement": "Cmax", "setting": "[1]; [9]", "value": "6565 ± 2158", "unit": "ng/mL"}, {"measurement": "t1/2", "setting": "[1]; [9]", "value": "46.6 ± 8.7", "unit": "min"}, {"measurement": "Cmax", "setting": "[1]; [10]", "value": "15505 ± 6245", "unit": "ng/mL"}, {"measurement": "t1/2", "setting": "[1]; [10]", "value": "44.6 ± 8.0", "unit": "min"}, {"measurement": "Cmax", "setting": "[1]; [11]", "value": "31177 ± 8968", "unit": "ng/mL"}, {"measurement": "t1/2", "setting": "[1]; [11]", "value": "43.4 ± 6.7", "unit": "min"}, {"measurement": "dose limiting toxicity (DLT)", "setting": "[1]; 600 mg/m2/d, six patients, ref on-going phase 1", "value": "DLT of severe fatigue"}, {"measurement": "Cmax", "setting": "[1]; [12]", "value": "53779 ± 6381", "unit": "ng/mL"}, {"measurement": "t1/2", "setting": "[1]; [12]", "value": "54.2 ± 8.7", "unit": "min"}, {"measurement": "Cmax", "setting": "[1]; [13]", "value": "52362 ± 12724", "unit": "ng/mL"}, {"measurement": "t1/2", "setting": "[1]; [13]", "value": "85.5 ± 19.6", "unit": "min"}, {"measurement": "tolerability", "setting": "[1]; doses ranging from 150 – 1200 mg/m2, ref phase 1 study currently underway", "value": "generally been well tolerated"}, {"measurement": "increases in the rate of respiration", "setting": "[2]; 15 mg/kg and 35 mg/kg", "value": "not significantly different"}, {"measurement": "heart rate", "setting": "[2]; high dose (35 mg/kg)", "value": "small transient increase in heart rate"}, {"measurement": "electrocardiogram waveform changes (decrease in RR, PR and QT intervals)", "setting": "[2]", "value": "not substantially different from the control group"}, {"measurement": "plasma t½", "setting": "[3]", "value": "approximately 40 minutes"}, {"measurement": "CYP2C9 inhibition", "setting": "CYP2C9", "value": "weak to moderate inhibitor"}, {"measurement": "survival, 40 mg/kg/day × 5 days (from day 3) versus same total dose (200 mg/kg) as bolus on day 3", "setting": "[4]; P<0.0001", "value": "superior"}, {"measurement": "survival, 20 mg/kg/day for 10 days versus 40 mg/kg every two days (cumulative 200 mg/kg)", "setting": "[4]; P=0.009", "value": "better survival"}, {"measurement": "survival rates, every second day three times versus every day for 5 days (cumulative 270 mg/kg)", "setting": "[4]; p=0.49", "value": "no significant differences"}, {"measurement": "survival, daily dose (20, 40, or 80 mg/kg for 5 days) fractionated into two doses per day versus one daily dose", "setting": "[4]", "value": "did not improve survival"}, {"measurement": "Histone H3 acetylation", "setting": "[5]", "value": "time and concentration dependent increase"}, {"measurement": "metabolism by UGT isoform", "setting": "UGT2B15", "value": "no metabolism was observed"}, {"measurement": "metabolism by UGT isoform", "setting": "UGT2B17", "value": "no metabolism was observed"}, {"measurement": "metabolism by UGT isoform", "setting": "UGT1A6", "value": "no metabolism was observed"}, {"measurement": "metabolism by UGT isoform", "setting": "UGT1A10", "value": "no metabolism was observed"}, {"measurement": "metabolism by UGT isoform", "setting": "UGT1A7", "value": "no metabolism was observed"}, {"measurement": "metabolism by UGT isoform", "setting": "UGT1A4", "value": "no metabolism was observed"}, {"measurement": "metabolism by UGT isoform", "setting": "UGT1A9", "value": "no metabolism was observed"}, {"measurement": "inhibition of the five major cytochrome P450 enzymes", "setting": "[6]", "value": "did not inhibit"}, {"measurement": "tumor growth", "setting": "[7]", "value": "Delay of tumor growth was observed"}, {"measurement": "systemic effects", "setting": "[8]", "value": "mild"}, {"measurement": "contribution of CYP3A4 to metabolism", "setting": "CYP3A4", "value": "contributes to PXD101 metabolism"}]}]}
